Assay results from patent publication US9975895B2, “Substituted pyrimidinium compounds and derivatives for combating animal pests” (BASF SE, priority 2013, dated 2018).

Columns and labels:
Type in all cases: in vivo
[1] = test system: Green peach aphid (Myzus persicae); assay: Green peach aphid control through systemic means, artificial diet under membrane; details: 72 h, adult aphids on treated diet, 3 days, read-out: mortality in comparison with untreated controls
Source text: For evaluating control of green peach aphid (Myzus persicae) through systemic means the test unit consisted of 96-well-microtiter plates containing liquid artificial diet under an artificial membrane.
The compounds were formulated using a solution containing 75% v/v water and 25% v/v DMSO. Different concentrations of formulated compounds were pipetted into the aphid diet, using a custom built pipetter, at two replications.
After application, 5-8 adult aphids were placed on the artificial membrane inside the microtiter plate wells. The aphids were then allowed to suck on the treated aphid diet and incubated at about 23±1° C. and about 50±5% relative humidity for 3 days. Aphid mortality and fecundity was then visually assessed.

[2] = test system: Orchid thrips (Dichromothrips corbetti); assay: Orchid thrips floral-immersion bioassay; details: adult thrips, 72 hours after treatment, read-out: mortality in comparison with untreated controls
Method: Dichromothrips corbetti adults used for bioassay were obtained from a colony maintained continuously under laboratory conditions. For testing purposes, the test compound is diluted in a 1:1 mixture of acetone:water (vol:vol), plus 0.01% vol/vol Alkamuls® EL 620 surfactant. Thrips potency of each compound was evaluated by using a floral-immersion technique. Plastic petri dishes were used as test arenas. All petals of individual, intact orchid flowers were dipped into treatment solution and allowed to dry. Treated flowers were placed into individual petri dishes along with about 20 adult thrips. The petri dishes were then covered with lids. All test arenas were held under continuous light and a temperature of about 28° C. for duration of the assay. After 3 days, the numbers of live thrips were counted on each flower, and along inner walls of each petri dish. The percent mortality was recorded 72 hours after treatment.

[3] = test system: Rice green leafhopper (Nephotettix virescens); assay: Rice green leafhopper, sprayed potted rice seedlings; details: adults on sprayed rice seedlings, after 72 hours, read-out: mortality in comparison with untreated controls
Method: (§1) Rice seedlings were cleaned and washed 24 hours before spraying. The active compounds were formulated in 50:50 acetone:water (vol:vol), and 0.1% vol/vol surfactant (EL 620) was added. Potted rice seedlings were sprayed with 5 ml test solution, air dried, placed in cages and inoculated with 10 adults. Treated rice plants were kept at about 28-29° C. and relative humidity of about 50-60%. Percent mortality was recorded after 72 hours.

[4] = test system: Rice brown plant hopper (Nilaparvata lugens); assay: Rice brown plant hopper, sprayed potted rice seedlings; details: adults on sprayed rice seedlings, after 72 hours, read-out: mortality in comparison with untreated controls
Method: as §1, with “(vol:vol)” for “(vol:vol),”

[5] = test system: Vetch aphid (Megoura viciae); assay: Vetch aphid control through contact or systemic means, broad bean leaf disks; details: foliar, 120 h, adult aphids on treated leaf disks, 5 days, read-out: mortality in comparison with untreated controls
Method: For evaluating control of vetch aphid (Megoura viciae) through contact or systemic means the test unit consisted of 24-well-microtiter plates containing broad bean leaf disks.
The compounds were formulated using a solution containing 75% v/v water and 25% v/v DMSO. Different concentrations of formulated compounds were sprayed onto the leaf disks at 2.5 μl, using a custom built micro atomizer, at two replications.
After application, the leaf disks were air-dried and 5-8 adult aphids placed on the leaf disks inside the microtiter plate wells. The aphids were then allowed to suck on the treated leaf disks and incubated at about 23±1° C. and about 50±5% relative humidity for 5 days. Aphid mortality and fecundity was then visually assessed.

[6] = test system: Boll weevil (Anthonomus grandis); assay: Boll weevil control, 96-well microtiter plates with insect diet and eggs; details: 120 h, egg and larval mortality after 5 days, read-out: mortality in comparison with untreated controls
Method: For evaluating control of boll weevil (Anthonomus grandis) the test unit consisted of 96-well-microtiter plates containing an insect diet and 5-10 A. grandis eggs.
The compounds were formulated using a solution containing 75% v/v water and 25% v/v DMSO. Different concentrations of formulated compounds were sprayed onto the insect diet at 5 μl, using a custom built micro atomizer, at two replications.
After application, microtiter plates were incubated at about 25±1° C. and about 75±5% relative humidity for 5 days. Egg and larval mortality was then visually assessed.

[7] = test system: Tobacco budworm (Heliothis virescens); assay: Tobacco budworm control, 96-well microtiter plates with insect diet and eggs; details: 120 h, egg and larval mortality after 5 days, read-out: mortality in comparison with untreated controls
Method: For evaluating control of tobacco budworm (Heliothis virescens) the test unit consisted of 96-well-microtiter plates containing an insect diet and 15-25 H. virescens eggs.
The compounds were formulated using a solution containing 75% v/v water and 25% v/v DMSO. Different concentrations of formulated compounds were sprayed onto the insect diet at 10 μl, using a custom built micro atomizer, at two replications.
After application, microtiter plates were incubated at about 28±1° C. and about 80±5% relative humidity for 5 days. Egg and larval mortality was then visually assessed.

O=c1c(-c2ccccc2)c([O-])[n+]2c3n1CCC3CCC2c1cnc(Cl)s1 (stereo not drawn) [C-2]
> 75%: mortality at 2500 ppm [1] | mortality at 500 ppm [2] | mortality at 500 ppm [3] | mortality at 500 ppm [4] | mortality at 2500 ppm [5]

O=c1c(-c2ccccc2)c([O-])[n+]2c3n1CCCC3CC2c1cnc(Cl)s1 (stereo not drawn) [C-3]
> 75%: mortality at 2500 ppm [1] | mortality at 500 ppm [2] | mortality at 500 ppm [3] | mortality at 500 ppm [4] | mortality at 2500 ppm [5]

O=c1c(-c2ccccc2)c([O-])[n+]2c3n1CCN3CCC2c1cnc(Cl)s1 (stereo not drawn) [C-4]
> 75%: mortality at 2500 ppm [1] | mortality at 500 ppm [2] | mortality at 500 ppm [3]

O=c1c(-c2ccccc2)c([O-])[n+]2c3n1CCCC3CCC2c1cnc(Cl)s1 (stereo not drawn) [C-6]
> 75%: mortality at 2500 ppm [1] | mortality at 500 ppm [2] | mortality at 500 ppm [3] | mortality at 500 ppm [4] | mortality at 2500 ppm [5]

O=c1c(-c2ccccc2)c([O-])[n+]2c3n1CCCN3CCC2c1cnc(Cl)s1 (stereo not drawn) [C-7]
> 75%: mortality at 2500 ppm [6] | mortality at 2500 ppm [1] | mortality at 500 ppm [2] | mortality at 500 ppm [3] | mortality at 500 ppm [4] | mortality at 2500 ppm [5]

O=c1c(-c2ccccc2)c([O-])[n+]2c3c(cccn13)CCC2c1cnc(Cl)s1 (stereo not drawn) [C-8]
> 75%: mortality at 2500 ppm [6] | mortality at 2500 ppm [1] | mortality at 500 ppm [2] | mortality at 500 ppm [3] | mortality at 500 ppm [4] | mortality at 2500 ppm [7] | mortality at 2500 ppm [5]

O=c1c(-c2cccc(C(F)(F)F)c2)c([O-])n2c3c(ccc[n+]13)CCC2c1cnc(Cl)s1 (stereo not drawn) [C-9]
> 75%: mortality at 2500 ppm [1] | mortality at 2500 ppm [7] | mortality at 2500 ppm [5]

O=c1c(-c2cc(Cl)cc(Cl)c2)c([O-])n2c3c(ccc[n+]13)CCC2c1cnc(Cl)s1 (stereo not drawn) [C-10]
> 75%: mortality at 2500 ppm [7] | mortality at 2500 ppm [5]

COc1ccc(-c2c([O-])n3c4c(ccc[n+]4c2=O)CCC3c2cnc(Cl)s2)cc1 (stereo not drawn) [C-11]
> 75%: mortality at 2500 ppm [1] | mortality at 2500 ppm [7] | mortality at 2500 ppm [5]
